Laboratory results published in patent publication US12077503B2, “Substituted cyclic amides and their use as herbicides” (FMC CORPORATION, priority 2015, dated 2024).

Tests used:
Assay type in all cases: in vivo
[1] = system: barnyardgrass (Echinochloa crus-galli); test: Test G Pre-Emergence Protocol; settings: Echinochloa crus-galli, pre-emergence, 312 h, evaluated after 13 days; for pest or weed control at 15.625 g/ha: 15.625 g ai/ha, read-out: Barnyard grass damage rating (100=total damage to plant; 0=no damage to plant); for pest or weed control at 62.5 g/ha: 62.5 g ai/ha, 100=total damage to plant, 0=no damage to plant, read-out: plant damage rating, Barnyardgrass; for pest or weed control at 250 g/ha: 250 g ai/ha, read-out: Barnyardgrass damage rating (100=total damage to plant; 0=no damage to plant)
Procedure, shortened: (§1)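 Glasshouse pre-emergence test: soil-sown seeds, sprayed after 1 d at 15.625, 62.5 or 250 g/ha. Conditions 24/16° C day/night, 14 h light, 65% humidity, watering twice daily. Rating 13 d post-spray (100 = total damage).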

corn (Zea mays) [2] = test: Test G Pre-Emergence Protocol; settings: Zea mays, pre-emergence, 312 h, evaluated after 13 days; for plant injury at 15.625 g/ha: 15.625 g ai/ha; for plant injury at 15.625 g/ha / plant injury at 250 g/ha: read-out: Corn damage rating (100=total damage to plant; 0=no damage to plant); for plant injury at 62.5 g/ha: 62.5 g ai/ha, 100=total damage to plant, 0=no damage to plant, read-out: plant damage rating, Corn; for plant injury at 250 g/ha: 250 g ai/ha
Procedure, shortened: as §1

[3] = system: giant foxtail (Setaria faberi); test: Test G Pre-Emergence Protocol; settings: Setaria faberi, pre-emergence, 312 h, evaluated after 13 days; for pest or weed control at 15.625 g/ha: 15.625 g ai/ha; for pest or weed control at 15.625 g/ha / pest or weed control at 250 g/ha: read-out: Foxtail, Giant damage rating (100=total damage to plant; 0=no damage to plant); for pest or weed control at 62.5 g/ha: 62.5 g ai/ha, 100=total damage to plant, 0=no damage to plant, read-out: plant damage rating, Foxtail, Giant; for pest or weed control at 250 g/ha: 250 g ai/ha
Procedure, shortened: as §1

[4] = system: ivy-leaved morning glory (Ipomoea hederacea); test: Test G Pre-Emergence Protocol; settings: Ipomoea, pre-emergence, 312 h, evaluated after 13 days; for pest or weed control at 15.625 g/ha: 15.625 g ai/ha, read-out: Morning-glory, Ivy-leaved damage rating (100=total damage to plant; 0=no damage to plant); for pest or weed control at 62.5 g/ha: 62.5 g ai/ha, 100=total damage to plant, 0=no damage to plant, read-out: plant damage rating, Morningglory, Ivy-leaved; for pest or weed control at 250 g/ha: 250 g ai/ha, read-out: Morningglory, Ivy-leaved damage rating (100=total damage to plant; 0=no damage to plant)
Procedure, shortened: as §1

[5] = system: redroot pigweed (Amaranthus retroflexus); test: Test G Pre-Emergence Protocol; settings: Amaranthus retroflexus, pre-emergence, 312 h, evaluated after 13 days; for pest or weed control at 15.625 g/ha: 15.625 g ai/ha; for pest or weed control at 15.625 g/ha / pest or weed control at 250 g/ha: read-out: Pigweed, Redroot damage rating (100=total damage to plant; 0=no damage to plant); for pest or weed control at 62.5 g/ha: 62.5 g ai/ha, 100=total damage to plant, 0=no damage to plant, read-out: plant damage rating, Pigweed, Redroot; for pest or weed control at 250 g/ha: 250 g ai/ha
Procedure, shortened: as §1

[6] = system: velvetleaf (Abutilon theophrasti); test: Test G Pre-Emergence Protocol; settings: Abutilon theophrasti, pre-emergence, 312 h, evaluated after 13 days; for pest or weed control at 15.625 g/ha: 15.625 g ai/ha; for pest or weed control at 15.625 g/ha / pest or weed control at 250 g/ha: read-out: Velvetleaf damage rating (100=total damage to plant; 0=no damage to plant); for pest or weed control at 62.5 g/ha: 62.5 g ai/ha, 100=total damage to plant, 0=no damage to plant, read-out: plant damage rating, Velvetleaf; for pest or weed control at 250 g/ha: 250 g ai/ha
Procedure, shortened: as §1

[7] = system: barnyardgrass (Echinochloa crus-galli); test: Test G Post-Emergence Protocol; settings: Echinochloa crus-galli, post-emergence, 312 h; for pest or weed control at 15.625 g/ha: 15.625 g ai/ha, evaluated after 13 days (100=total damage to plant; 0=no damage to plant), read-out: Barnyardgrass damage rating; for pest or weed control at 62.5 g/ha: 62.5 g ai/ha, read-out: Barnyardgrass damage rating (100=total damage to plant; 0=no damage to plant); for pest or weed control at 62.5 g/ha / pest or weed control at 250 g/ha: evaluated after 13 days; for pest or weed control at 250 g/ha: 250 g ai/ha, read-out: damage to plant, Barnyardgrass (100=total damage to plant; 0=no damage to plant)
Procedure, shortened: (§2)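 Post-emergence herbicidal damage, scored visually 0–100 at 13 days. Application at 15.625, 62.5 or 250 g/ha onto 8-day-old plants grown under glasshouse control.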

corn (Zea mays) [8] = test: Test G Post-Emergence Protocol; settings: Zea mays, post-emergence, 312 h; for plant injury at 15.625 g/ha: 15.625 g ai/ha, evaluated after 13 days (100=total damage to plant; 0=no damage to plant), read-out: Corn damage rating; for plant injury at 62.5 g/ha: 62.5 g ai/ha, read-out: Corn damage rating (100=total damage to plant; 0=no damage to plant); for plant injury at 62.5 g/ha / plant injury at 250 g/ha: evaluated after 13 days; for plant injury at 250 g/ha: 250 g ai/ha, read-out: damage to plant, Corn (100=total damage to plant; 0=no damage to plant)
Procedure, shortened: as §2

[9] = system: giant foxtail (Setaria faberi); test: Test G Post-Emergence Protocol; settings: Setaria faberi, post-emergence, 312 h; for pest or weed control at 15.625 g/ha: 15.625 g ai/ha, evaluated after 13 days (100=total damage to plant; 0=no damage to plant), read-out: Foxtail, Giant damage rating; for pest or weed control at 62.5 g/ha: 62.5 g ai/ha, read-out: Foxtail, Giant damage rating (100=total damage to plant; 0=no damage to plant); for pest or weed control at 62.5 g/ha / pest or weed control at 250 g/ha: evaluated after 13 days; for pest or weed control at 250 g/ha: 250 g ai/ha, read-out: damage to plant, Foxtail, Giant (100=total damage to plant; 0=no damage to plant)
Procedure, shortened: as §2

[10] = system: ivy-leaved morning glory (Ipomoea hederacea); test: Test G Post-Emergence Protocol; settings: Ipomoea, post-emergence, 312 h; for pest or weed control at 15.625 g/ha: 15.625 g ai/ha, evaluated after 13 days (100=total damage to plant; 0=no damage to plant), read-out: Morningglory, Ivy-leaved damage rating; for pest or weed control at 62.5 g/ha: 62.5 g ai/ha, read-out: Morningglory, Ivy-leaved damage rating (100=total damage to plant; 0=no damage to plant); for pest or weed control at 62.5 g/ha / pest or weed control at 250 g/ha: evaluated after 13 days; for pest or weed control at 250 g/ha: 250 g ai/ha, read-out: damage to plant, Morningglory, Ivy-leaved (100=total damage to plant; 0=no damage to plant)
Procedure, shortened: as §2

[11] = system: redroot pigweed (Amaranthus retroflexus); test: Test G Post-Emergence Protocol; settings: Amaranthus retroflexus, post-emergence, 312 h; for pest or weed control at 15.625 g/ha: 15.625 g ai/ha, evaluated after 13 days (100=total damage to plant; 0=no damage to plant), read-out: Pigweed, Redroot damage rating; for pest or weed control at 62.5 g/ha: 62.5 g ai/ha, read-out: Pigweed, Redroot damage rating (100=total damage to plant; 0=no damage to plant); for pest or weed control at 62.5 g/ha / pest or weed control at 250 g/ha: evaluated after 13 days; for pest or weed control at 250 g/ha: 250 g ai/ha, read-out: damage to plant, Pigweed, Redroot (100=total damage to plant; 0=no damage to plant)
Procedure, shortened: as §2

[12] = system: velvetleaf (Abutilon theophrasti); test: Test G Post-Emergence Protocol; settings: Abutilon theophrasti, post-emergence, 312 h; for pest or weed control at 15.625 g/ha: 15.625 g ai/ha, evaluated after 13 days (100=total damage to plant; 0=no damage to plant), read-out: Velvetleaf damage rating; for pest or weed control at 62.5 g/ha: 62.5 g ai/ha, read-out: Velvetleaf damage rating (100=total damage to plant; 0=no damage to plant); for pest or weed control at 62.5 g/ha / pest or weed control at 250 g/ha: evaluated after 13 days; for pest or weed control at 250 g/ha: 250 g ai/ha, read-out: damage to plant, Velvetleaf (100=total damage to plant; 0=no damage to plant)
Procedure, shortened: as §2

SMILES	pest or weed control at 15.625 g/ha [1] [%]	pest or weed control at 62.5 g/ha [1] [%]	pest or weed control at 250 g/ha [1] [%]	plant injury at 15.625 g/ha (corn (Zea mays) [2]) [%]	plant injury at 62.5 g/ha (corn (Zea mays) [2]) [%]	plant injury at 250 g/ha (corn (Zea mays) [2]) [%]	pest or weed control at 15.625 g/ha [3] [%]	pest or weed control at 62.5 g/ha [3] [%]	pest or weed control at 250 g/ha [3] [%]	pest or weed control at 15.625 g/ha [4] [%]	pest or weed control at 62.5 g/ha [4] [%]	pest or weed control at 250 g/ha [4] [%]	pest or weed control at 15.625 g/ha [5] [%]	pest or weed control at 62.5 g/ha [5] [%]	pest or weed control at 250 g/ha [5] [%]	pest or weed control at 15.625 g/ha [6] [%]	pest or weed control at 62.5 g/ha [6] [%]	pest or weed control at 250 g/ha [6] [%]	pest or weed control at 15.625 g/ha [7] [%]	pest or weed control at 62.5 g/ha [7] [%]	also measured
Cc1ccc(NC(=O)[C@@H]2C(=O)N(C)C[C@H]2c2ccc(C(F)(F)F)cc2)c(F)c1 (racemic) [Compound 1591]	0	50	70	0	10	0	0	70	80	0	0	0	0	0	0	0	0	10	0	30	pest or weed control at 250 g/ha [7]: 50%; plant injury at 15.625 g/ha (corn (Zea mays) [8]): 0%; plant injury at 62.5 g/ha (corn (Zea mays) [8]): 0%; plant injury at 250 g/ha (corn (Zea mays) [8]): 10%; pest or weed control at 15.625 g/ha [9]: 0%; pest or weed control at 62.5 g/ha [9]: 70%; pest or weed control at 250 g/ha [9]: 80%; pest or weed control at 15.625 g/ha [10]: 0%; pest or weed control at 62.5 g/ha [10]: 10%; pest or weed control at 250 g/ha [10]: 10%; pest or weed control at 15.625 g/ha [11]: 0%; pest or weed control at 62.5 g/ha [11]: 10%; pest or weed control at 250 g/ha [11]: 10%; pest or weed control at 15.625 g/ha [12]: 0%; pest or weed control at 62.5 g/ha [12]: 0%; pest or weed control at 250 g/ha [12]: 10%
CN1C[C@@H](c2ccc(C(F)(F)F)cc2)[C@H](C(=O)Nc2ccccn2)C1=O (racemic) [Compound 1596]	0	0	70	0	0	0	0	40	80	0	10	100	0	20	60	0	0	20	0	30	pest or weed control at 250 g/ha [7]: 70%; plant injury at 15.625 g/ha (corn (Zea mays) [8]): 0%; plant injury at 62.5 g/ha (corn (Zea mays) [8]): 0%; plant injury at 250 g/ha (corn (Zea mays) [8]): 10%; pest or weed control at 15.625 g/ha [9]: 0%; pest or weed control at 62.5 g/ha [9]: 60%; pest or weed control at 250 g/ha [9]: 80%; pest or weed control at 15.625 g/ha [10]: 0%; pest or weed control at 62.5 g/ha [10]: 10%; pest or weed control at 250 g/ha [10]: 20%; pest or weed control at 15.625 g/ha [11]: 0%; pest or weed control at 62.5 g/ha [11]: 10%; pest or weed control at 250 g/ha [11]: 40%; pest or weed control at 15.625 g/ha [12]: 0%; pest or weed control at 62.5 g/ha [12]: 0%; pest or weed control at 250 g/ha [12]: 10%
Cc1cc(NC(=O)[C@@H]2C(=O)N(C)C[C@H]2c2ccc(C(F)(F)F)cc2)ccn1 (racemic) [Compound 1600]	0	0	0	0	0	0	0	0	0	0	0	0	0	0	0	0	0	0	0	0	pest or weed control at 250 g/ha [7]: 0%; plant injury at 15.625 g/ha (corn (Zea mays) [8]): 0%; plant injury at 62.5 g/ha (corn (Zea mays) [8]): 0%; plant injury at 250 g/ha (corn (Zea mays) [8]): 0%; pest or weed control at 15.625 g/ha [9]: 0%; pest or weed control at 62.5 g/ha [9]: 0%; pest or weed control at 250 g/ha [9]: 0%; pest or weed control at 15.625 g/ha [10]: 0%; pest or weed control at 62.5 g/ha [10]: 0%; pest or weed control at 250 g/ha [10]: 0%; pest or weed control at 15.625 g/ha [11]: 0%; pest or weed control at 62.5 g/ha [11]: 0%; pest or weed control at 250 g/ha [11]: 0%; pest or weed control at 15.625 g/ha [12]: 0%; pest or weed control at 62.5 g/ha [12]: 0%; pest or weed control at 250 g/ha [12]: 0%
